The text below walks through data of patent US20130310379A1, “MODULATORS OF METHYL MODIFYING ENZYMES, COMPOSITIONS AND USES THEREOF” (CONSTELLATION PHARMACEUTICALS, priority 2010, published 2013).

The target in this assay is EZH2 (Homo sapiens, UniProt Q15910). Put plainly: EZH2 assay: rPRC2 with biotinylated oligonucleosome substrates and 3H SAM, FlashPlate scintillation counting, IC50. Type of assay: biochemical. As to conditions: rPRC2, biotinylated oligonucleosome substrates, 3H SAM; read-out: EZH2 IC50. The method, boiled down: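 rPRC2 (2 nM EZH2) pre-incubated 20 min with compound (80 to 0.16 uM, ten 2-fold steps), then 60 min reaction with 0.2 uM 3H SAM, 0.2 uM biotinylated oligonucleosomes, 3.6 uM H3K27me3 peptide in Tris pH 8.5. SAH/EDTA quench; 4-parameter IC50 fit.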
EZH2, sequence (Q15910 whole entry): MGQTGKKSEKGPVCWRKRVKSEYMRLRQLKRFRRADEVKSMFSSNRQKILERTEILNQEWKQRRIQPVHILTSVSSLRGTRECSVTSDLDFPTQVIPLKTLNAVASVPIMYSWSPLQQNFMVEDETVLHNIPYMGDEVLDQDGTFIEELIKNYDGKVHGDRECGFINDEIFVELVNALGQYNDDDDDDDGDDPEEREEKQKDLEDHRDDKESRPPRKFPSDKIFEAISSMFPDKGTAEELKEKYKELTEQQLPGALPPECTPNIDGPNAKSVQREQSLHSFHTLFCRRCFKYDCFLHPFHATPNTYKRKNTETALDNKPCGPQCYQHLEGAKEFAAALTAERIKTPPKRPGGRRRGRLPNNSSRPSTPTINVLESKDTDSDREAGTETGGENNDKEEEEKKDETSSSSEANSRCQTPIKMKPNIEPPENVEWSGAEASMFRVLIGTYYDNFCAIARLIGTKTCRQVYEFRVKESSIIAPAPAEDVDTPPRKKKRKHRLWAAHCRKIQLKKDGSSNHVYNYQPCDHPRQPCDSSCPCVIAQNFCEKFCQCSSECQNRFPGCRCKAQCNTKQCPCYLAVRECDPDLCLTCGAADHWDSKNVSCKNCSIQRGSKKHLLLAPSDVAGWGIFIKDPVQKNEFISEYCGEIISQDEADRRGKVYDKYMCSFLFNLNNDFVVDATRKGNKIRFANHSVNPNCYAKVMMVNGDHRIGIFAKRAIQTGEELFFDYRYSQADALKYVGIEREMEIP
EZH2, sequence (O75530 whole entry partner): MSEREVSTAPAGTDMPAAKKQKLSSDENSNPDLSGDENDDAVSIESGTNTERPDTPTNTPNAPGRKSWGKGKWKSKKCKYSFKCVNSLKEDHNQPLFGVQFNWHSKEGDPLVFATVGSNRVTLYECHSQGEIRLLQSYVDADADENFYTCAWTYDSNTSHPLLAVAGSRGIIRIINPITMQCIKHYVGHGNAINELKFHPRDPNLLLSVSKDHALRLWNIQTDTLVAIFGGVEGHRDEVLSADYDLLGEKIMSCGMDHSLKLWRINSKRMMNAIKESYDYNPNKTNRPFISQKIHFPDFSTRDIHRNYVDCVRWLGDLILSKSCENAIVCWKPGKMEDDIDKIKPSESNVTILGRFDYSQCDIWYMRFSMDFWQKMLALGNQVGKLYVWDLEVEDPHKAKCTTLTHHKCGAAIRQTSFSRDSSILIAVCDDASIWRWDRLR
EZH2, sequence (Q15022 whole entry partner): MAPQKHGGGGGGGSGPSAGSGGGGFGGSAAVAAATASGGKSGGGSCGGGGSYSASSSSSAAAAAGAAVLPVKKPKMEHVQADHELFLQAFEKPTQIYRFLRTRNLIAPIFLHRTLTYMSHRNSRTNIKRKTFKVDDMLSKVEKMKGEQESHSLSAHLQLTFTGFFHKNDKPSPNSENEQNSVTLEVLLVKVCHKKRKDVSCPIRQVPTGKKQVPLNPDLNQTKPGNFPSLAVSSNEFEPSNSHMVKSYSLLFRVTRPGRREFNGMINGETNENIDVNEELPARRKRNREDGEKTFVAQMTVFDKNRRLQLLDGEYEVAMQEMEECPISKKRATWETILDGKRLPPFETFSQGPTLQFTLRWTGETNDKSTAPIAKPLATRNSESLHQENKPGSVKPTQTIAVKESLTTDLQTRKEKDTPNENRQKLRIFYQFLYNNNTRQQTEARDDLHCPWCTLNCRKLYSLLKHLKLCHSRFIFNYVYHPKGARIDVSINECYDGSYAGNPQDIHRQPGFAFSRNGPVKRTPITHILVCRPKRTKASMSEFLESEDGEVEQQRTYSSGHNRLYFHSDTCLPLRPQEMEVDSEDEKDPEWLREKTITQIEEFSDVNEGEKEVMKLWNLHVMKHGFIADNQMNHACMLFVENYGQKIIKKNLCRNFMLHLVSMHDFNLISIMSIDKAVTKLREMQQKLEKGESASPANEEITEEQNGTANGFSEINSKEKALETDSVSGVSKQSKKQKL
By IC50 is commonly meant the point on the concentration scale where inhibition reaches its midpoint. Take `CC1(C)CC(NC(=O)c2ccc(Oc3ccccc3C#N)cn2)CC(C)(C)N1` [Compound I-205]: the half-inhibitory concentration (IC50) was 5 to 20 µM.
For the compound `CC1(C)CC(NC(=O)c2ccc(Oc3ccccc3-c3ccccc3)c(Cl)c2)CC(C)(C)N1` [Compound I-206], the IC50 was < 5 µM.
In the case of `CC(Oc1ccccc1Oc1ccc(C(=O)NC2CC(C)(C)NC(C)(C)C2)cc1)c1ccccc1` (centres unmarked) [Compound I-208], the IC50 is 5 to 20 µM.
The result for `CC1(C)CC(NC(=O)c2ccc(Oc3ccccc3OCc3ccncc3)cc2)CC(C)(C)N1` [Compound I-209] reads 5 to 20 µM; that for `CC1(C)CC(NC(=O)c2ccc(Oc3ccccc3C(C)(C)C)c(Cl)c2)CC(C)(C)N1` [Compound I-210], 20 to 80 µM.
The result for `CC1(C)CC(NC(=O)c2ccc(Oc3ccccc3C#N)c(-c3cccnc3)c2)CC(C)(C)N1` [Compound I-211] reads < 5 µM.
The result for `CC1(C)CC(NC(=O)c2ccc(Oc3ccccc3C#N)c(-c3ccsc3)c2)CC(C)(C)N1` [Compound I-212] reads < 5 µM; that for `CC1(C)CC(NC(=O)c2ccc(Oc3ccccc3C#N)c(-c3cn[nH]c3)c2)CC(C)(C)N1` [Compound I-213], < 5 µM; that for `Cc1noc(C)c1-c1cc(C(=O)NC2CC(C)(C)NC(C)(C)C2)ccc1Oc1ccccc1C#N` [Compound I-214], 20 to 80 µM.
In the case of `CC1(C)CC(NC(=O)c2ccc(COc3ccccc3)c(Br)c2)CC(C)(C)N1` [Compound I-215], the IC50 was in the range of 20 to 80 µM.
For the compound `CC1(C)CC(NC(=O)c2ccc(Oc3ccccc3C#N)c(C(F)(F)F)c2)CC(C)(C)N1` [Compound I-218], the IC50 is < 5 µM.
In the case of `CC1(C)CC(NC(=O)c2ccc(Oc3cccnc3C#N)c(Br)c2)CC(C)(C)N1` [Compound I-219], the IC50 is < 5 µM.
The result for `CC1(C)CC(NC(=O)c2ccc(Oc3ncccc3C#N)c(Br)c2)CC(C)(C)N1` [Compound I-220] reads < 5 µM; that for `CC1(C)CC(NC(=O)c2ccc(Oc3ccccc3C#N)c(C3CC3)c2)CC(C)(C)N1` [Compound I-221], < 5 µM; that for `CC1(C)CC(NC(=O)c2ccc(Oc3cccc4ncccc34)cc2)CC(C)(C)N1` [Compound I-222], > 80 µM.
With `C#Cc1ccccc1Oc1ccc(C(=O)NC2CC(C)(C)NC(C)(C)C2)cc1` [Compound I-224], the IC50 was 5 to 20 µM.
The result for `CC1(C)CC(NC(=O)c2ccc(Oc3ccccc3-c3ccccn3)c(Cl)c2)CC(C)(C)N1` [Compound I-225] reads 5 to 20 µM.
`CC1(C)CC(NC(=O)c2ccc(Oc3ccccc3-c3ccncc3)c(Cl)c2)CC(C)(C)N1` [Compound I-226]: the IC50 is < 5 µM.
Next, `CC1(C)CC(NC(=O)c2ccc(Oc3ccccc3-c3ccc(N)nc3)c(Cl)c2)CC(C)(C)N1` [Compound I-227]: < 5 µM; `CC1(C)CC(NC(=O)c2ccc(Oc3ccccc3C3=CCNCC3)c(Cl)c2)CC(C)(C)N1` [Compound I-229]: 5 to 20 µM.
Next, `CC1(C)CC(NC(=O)c2ccc(Oc3ccccc3C3CCNCC3)c(Cl)c2)CC(C)(C)N1` [Compound I-230]: 5 to 20 µM.
In the case of `CC1(C)CC(NC(=O)c2ccc(Oc3ccccc3OCc3ccccn3)cc2)CC(C)(C)N1` [Compound I-231], the IC50 lay within 5 to 20 µM.
The result for `CC1(C)CC(NC(=O)c2ccc(Oc3ccccc3OCc3cccnc3)cc2)CC(C)(C)N1` [Compound I-232] reads 20 to 80 µM; that for `CC1(C)CC(NC(=O)c2ccc(Oc3ccccc3C(=O)N3CCCC3)c(Cl)c2)CC(C)(C)N1` [Compound I-233], > 80 µM; that for `CC1(C)CC(NC(=O)c2ccc(Oc3cccc(CN4CCOCC4)c3)cc2)CC(C)(C)N1` [Compound I-234], > 80 µM.
As for `CC1(C)CC(NC(=O)c2ccc(Oc3cccc(CN4CCCC4)c3)cc2)CC(C)(C)N1` [Compound I-235], the IC50 was 5 to 20 µM.
Next, `CNCc1cccc(Oc2ccc(C(=O)NC3CC(C)(C)NC(C)(C)C3)cc2)c1` [Compound I-236]: 5 to 20 µM.
With `CC(C)c1cc(C(=O)NC2CC(C)(C)NC(C)(C)C2)ccc1Oc1ccccc1C#N` [Compound I-237], the IC50 was < 5 µM.
In the case of `CC1(C)CC(NC(=O)c2ccc(Oc3ccccc3C#N)c(C3CCCC3)c2)CC(C)(C)N1` [Compound I-238], the IC50 was 5 to 20 µM.
The result for `CC1(C)CC(NC(=O)c2ccc(Oc3ccccc3C#N)c(COc3ccccc3)c2)CC(C)(C)N1` [Compound I-239] reads < 5 µM; that for `CC1(C)CC(NC(=O)c2ccc(COc3ccccc3C#N)cc2)CC(C)(C)N1` [Compound I-240], > 80 µM.
The result for `CC1(C)CC(NC(=O)c2ccc(CCc3ccccc3)cc2)CC(C)(C)N1` [Compound I-241] reads > 80 µM; that for `CC1(C)CC(NC(=O)c2ccc(Oc3nccc4ccccc34)c(Cl)c2)CC(C)(C)N1` [Compound I-242], 20 to 80 µM; that for `Cc1cc(Oc2ccccc2C#N)ccc1C(=O)NC1CC(C)(C)NC(C)(C)C1` [Compound I-243], 20 to 80 µM.
The result for `CC1(C)CC(NC(=O)c2ccc(Oc3c(Cl)cccc3C#N)cc2)CC(C)(C)N1` [Compound I-244] reads 20 to 80 µM.
As for `CC1(C)CC(NC(=O)c2ccc(Oc3ccccc3C#N)cc2F)CC(C)(C)N1` [Compound I-245], the IC50 lay in the range of 5 to 20 µM.
The result for `CN(C)C(=O)c1ccccc1Oc1ccc(C(=O)NC2CC(C)(C)NC(C)(C)C2)cc1Cl` [Compound I-246] reads 20 to 80 µM; that for `CN(C)Cc1cccc(Oc2ccc(C(=O)NC3CC(C)(C)NC(C)(C)C3)cc2)c1` [Compound I-247], 20 to 80 µM; that for `COCc1ccccc1Oc1ccc(C(=O)NC2CC(C)(C)NC(C)(C)C2)cc1` [Compound I-248], 20 to 80 µM.
Turning to `CC1(C)CC(NC(=O)c2ccc(Oc3ncccc3C#N)c(Cl)c2)CC(C)(C)N1` [Compound I-249], the IC50 was in the range of 5 to 20 µM.
With `CC1(C)CC(NC(=O)c2ccc(Oc3ccccc3CN3CCCC3)cc2)CC(C)(C)N1` [Compound I-250], the half-maximal inhibitory concentration (IC50) was in the range of 20 to 80 µM.
Next, `CC1(C)CC(NC(=O)c2ccc(Oc3cccc(-c4cnc(N)nc4)c3)cc2)CC(C)(C)N1` [Compound I-251]: 20 to 80 µM; `CC1(C)CC(NC(=O)c2ccc(Oc3ccccc3-c3ccsc3)c(Cl)c2)CC(C)(C)N1` [Compound I-252]: < 5 µM.
`CC1(C)CC(NC(=O)c2ccc(Oc3ccccc3-c3ncco3)c(Cl)c2)CC(C)(C)N1` [Compound I-253]: the IC50 is < 5 µM.
The result for `CC1(C)CC(NC(=O)c2ccc(Oc3cc(Br)ccc3C#N)c(Cl)c2)CC(C)(C)N1` [Compound I-255] reads < 5 µM.
With `Cc1cc(C(=O)NC2CC(C)(C)NC(C)(C)C2)ccc1Oc1cccc(-c2cccnc2)c1C#N` [Compound I-261], the IC50 is < 5 µM.
The result for `Cc1cc(C(=O)NC2CC(C)(C)NC(C)(C)C2)ccc1Oc1cccc(C2CC2)c1C#N` [Compound I-263] reads < 5 µM; that for `CC1(C)CC(NC(=O)c2ccc(Oc3ccccc3C#N)c(C#N)c2)CC(C)(C)N1` [Compound I-264], < 5 µM.
The result for `CCc1cc(C(=O)NC2CC(C)(C)NC(C)(C)C2)ccc1Oc1ccccc1C#N` [Compound I-265] reads < 5 µM.
Next, `Cc1cc(C(=O)NC2CC(C)(C)NC(C)(C)C2)ccc1Oc1cccc(C(C)C)c1C#N` [Compound I-267]: < 5 µM.
Turning to `CC1(C)CC(NC(=O)c2ccc(Oc3ccccc3)c(O)c2)CC(C)(C)N1` [Compound I-268], the 50% inhibitory concentration (IC50) was in the range of 20 to 80 µM.
Regarding `CC1(C)CC(NC(=O)c2ccc(Oc3ccccc3)c(OCc3ccccc3)c2)CC(C)(C)N1` [Compound I-269], the 50% inhibitory concentration (IC50) lay in the range of 20 to 80 µM.
The result for `CC1(C)CC(NC(=O)c2ccc(Oc3ccccc3C#N)c3ccccc23)CC(C)(C)N1` [Compound I-270] reads < 5 µM; that for `CC1(C)CC(NC(=O)c2ccc(Oc3ccccc3-c3cccnc3N)c(Cl)c2)CC(C)(C)N1` [Compound I-271], 5 to 20 µM; that for `CC1(C)CC(NC(=O)c2ccc(Oc3ccccc3C(=O)Nc3ccccc3)c(Cl)c2)CC(C)(C)N1` [Compound I-272], 20 to 80 µM.
The result for `CC1(C)CC(NC(=O)c2ccc(Oc3ccccc3CN)cc2)CC(C)(C)N1` [Compound I-273] reads 20 to 80 µM.
In the case of `CNCc1ccccc1Oc1ccc(C(=O)NC2CC(C)(C)NC(C)(C)C2)cc1` [Compound I-274], the IC50 is > 80 µM.
Regarding `CN(C)Cc1ccccc1Oc1ccc(C(=O)NC2CC(C)(C)NC(C)(C)C2)cc1` [Compound I-275], the IC50 was > 80 µM.
Next, `CCN1C(C)(C)CC(NC(=O)c2ccc(Oc3ccccc3C#N)c(Cl)c2)CC1(C)C` [Compound I-276]: 5 to 20 µM; `CC1(C)CC(NC(=O)c2ccc(Oc3ccccc3-c3cccs3)c(Cl)c2)CC(C)(C)N1` [Compound I-277]: < 5 µM.
The result for `CC1(C)CC(NC(=O)c2ccc(Oc3ccccc3-c3nccs3)c(Cl)c2)CC(C)(C)N1` [Compound I-278] reads < 5 µM.
Next, `CC1(C)CC(NC(=O)c2ccc(Oc3ccccc3-c3cncnc3)c(Cl)c2)CC(C)(C)N1` [Compound I-279]: < 5 µM; `COc1ccncc1-c1ccccc1Oc1ccc(C(=O)NC2CC(C)(C)NC(C)(C)C2)cc1Cl` [Compound I-280]: > 80 µM; `CCOC(=O)N1CCC(NC(=O)c2ccc(Oc3ccccc3C#N)c(Cl)c2)CC1` [Compound I-281]: > 80 µM.
Consider `CC1(C)CC(NC(=O)c2ccc(Oc3ccccc3-c3nn[nH]n3)c(Br)c2)CC(C)(C)N1` [Compound I-282], for which the IC50 was > 80 µM.
Consider `CC1(C)CC(NC(=O)c2ccc(Oc3cccc(CN4CCCCC4)c3C#N)cc2)CC(C)(C)N1` [Compound I-283], for which the IC50 fell in the range of 5 to 20 µM.
With `CC1(C)CC(NC(=O)c2ccc(Oc3ccccc3C(N)=O)c(Cl)c2)CC(C)(C)N1` [Compound I-284], the IC50 is 5 to 20 µM.
Consider `CNC(=O)c1ccccc1Oc1ccc(C(=O)NC2CC(C)(C)NC(C)(C)C2)cc1Cl` [Compound I-285], for which the IC50 lay in the range of 20 to 80 µM.
